Data published in US8420145B2, “Isosorbide derivatives and their use as flavor modifiers, tastants, and taste enhancers” (Senomyx, Inc., priority 2008, dated 2013).
Where “and” joins values, the source holds several entries; their conditions need not be identical. Equal entries are not always repeated.

Legend:
[1] = Time-intensity testing: panelists rate umami intensity over 70 seconds; format: in vivo, human; details: for Average Intensity-at-Max (umami intensity): scale 0 to 100
Description: Overview: Panelists Evaluate Various Solutions for Umami Intensity Over Time.
General procedure: Samples presented to panelists include various concentrations of MSG and compounds of interest. Samples may contain 0.1% ethanol to assist in dissolving compounds into solution. Samples are three-digit blind coded and served in 20 ml volumes. Samples are presented to panelists in randomized, counterbalanced order. All data is collected using the Compusense five software program. Umami intensity is rated on a scale from 0 to 100 (0=no umami intensity; 100=strong umami intensity). Panelists sip a sample and begin rating umami intensity. Panelists move the mouse on the horizontal scale to correspond to the umami intensity they perceive. Panelists continue rating the intensity for 70 seconds, and then expectorate the sample. The software program records an intensity score for each panelist for each 1 second period during the sample evaluation.
After tasting each sample, panelists sip and swish water in the mouth for a few seconds and expectorate. They may repeat this several times. Panelists wait 30 minutes before tasting the next sample.
Data analysis: Time-intensity curves are created for each of the samples and various parameters of the test are compared statistically.
To create the graphical representation of the sample: For each of the 70 seconds of the evaluation, panelists individual scores are averaged and presented graphically. For example, each panelist's intensity score at time=0 seconds is averaged and plotted. The same calculation is made for each of the 70 seconds to create the time-intensity curve.
To evaluate the Time to Maximum Intensity parameter: A time-intensity curve is created for each panelist. […] The specific time scores for each panelist are averaged. Next, the average scores for the various samples are compared using ANOVA, and multiple comparisons are performed using Tukey's Honestly Significant Difference test at alpha=0.05.

un-induced I-17 cells = assay: FLIPR assay on un-induced I-17 cells (no mifepristone, receptor not expressed); format: cell-based
Description: In order to determine the dependency of hT1R1/hT1R3 for the cell response to different stimuli, selected compounds were subjected to a similar analysis on I-17 cells that had not been induced for receptor expression with mifepristone (designated as un-induced I-17 cells). […] Compounds were presented to un-induced umami cells at 10 μM-or three times the maximum stimulation used in the dose-response analysis.

[2] = 15 ppm (41.62 uM) in Low Sodium Buffer pH 7.1, n = 33
[3] = 2.5 ppm (6.86 uM) in Low Sodium Buffer pH 7.1, n = 36
[4] = 12 mM in Low Sodium Buffer pH 7.1, n = 33
[5] = 12 mM in Low Sodium Buffer pH 7.1, n = 36
[6] = 16 mM in Low Sodium Buffer pH 7.1, n = 36

O=C(N[C@H]1CO[C@H]2[C@@H]1OC[C@@H]2n1cc(CC2CCCCC2)nn1)C1CC1 [Example 1, N-((3S,3αR,6S,6αR)-6-(4(cyclohexylmethyl)-1H-1,2,3-triazol-1-yl)-hexahydrofuro[13,2-b]furan-3-yl)cyclopropanecarboxamide]
Average Time-to-Max (time to maximum umami intensity) [1, 2]: 14.9 s | average intensity at maximum compared with Sample 1 (12 mM MSG), Tukey's HSD test ([1]; 15 ppm (41.62 uM), p<0.05): significantly more savory | average intensity at maximum compared with Sample 2 (16 mM MSG), Tukey's HSD test ([1]; 15 ppm (41.62 uM), p>0.1): not significantly different | average time to maximum intensity compared with Sample 2 (16 mM MSG), Tukey's HSD test ([1]; 15 ppm (41.62 uM), p>0.1): not significantly different | Average Intensity-at-Max (umami intensity) [1, 2]: 57

O=C(CCCC1CCCCC1)N[C@H]1CO[C@H]2[C@@H]1OC[C@@H]2NC(=O)C1CC1 [Example 29, N-((3S,3αR,6S,6αR)-6-(4cyclohexylbutanamido)hexahydrofuro-[3,2-b]furan-3-yl)cyclopropanecarboxamide]
average time to maximum intensity compared with Sample 4 (12 mM MSG) and Sample 5 (16 mM MSG), Tukey's HSD test ([1]; 2.5 ppm (6.86 uM)): not significantly different | Average Time-to-Max (time to maximum umami intensity) [1, 3]: 18.3 s | average intensity at max compared with Sample 4 (12 mM MSG) or Sample 5 (16 mM MSG), Tukey's HSD test ([1]; 2.5 ppm (6.86 uM), p>0.1): not significantly different | Average Intensity-at-Max (umami intensity) [1, 3]: 57.9 | melting point: 181.5 to 182.5 °C

N[C@@H](CCC(=O)O)C(=O)[O-].[Na+] [monosodium glutamate, Monosodium Glutamate]
functional response in the FLIPR assay (un-induced I-17 cells): do not show any functional response | Average Time-to-Max (time to maximum umami intensity) [1, 4]: 15.9 s | Average Time-to-Max (time to maximum umami intensity) [1, 5]: 18.8 s | Average Time-to-Max (time to maximum umami intensity) ([1]; 16 mM in Low Sodium Buffer pH 7.1, n = 33, listed as Sample 2): 17 s and 17.7 s | Average Time-to-Max (time to maximum umami intensity) [1, 6]: 16.3 s | Average Intensity-at-Max (umami intensity) [1, 4]: 45.3 | Average Intensity-at-Max (umami intensity) [1, 5]: 49.8 | Average Intensity-at-Max (umami intensity) ([1]; 16 mM in Low Sodium Buffer pH 7.1, n = 33): 53.8 | Average Intensity-at-Max (umami intensity) [1, 6]: 62.9
